Assay results: patent US8377948B2, “Antitumor agents and methods of their use” (The Ohio State University Research Foundation, priority 2004, dated 2013)

What follows are compounds tested on PC-3 cells (assay: MTT cell viability assay, PC-3 cells in 10% FBS medium). Details: Homo sapiens, PC-3, 48 h, RPMI 1640 with 10% FBS, means ± S.D. (n = 6).
Type: cell-based, human
Method: PC-3 (p53−/−) human androgen-nonresponsive prostate cancer cells were purchased from the American Type Tissue Collection (Manassas, Va.). Cells were cultured in RPMI 1640 medium (Gibco, Grand Island, N.Y.) supplemented with 10% fetal bovine serum (FBS; Gibco) at 37° C. in a humidified incubator containing 5% CO2.
Effect of the test agent on cell viability was assessed by the MTT {[3-(4,5-dimethylthiazol-2-yl)-2,5-diphenyl-2H-tetrazolium bromide]} assay in 96-well, flat-bottomed plates, in which 8,000 PC-3 or DU-145 cells/well were seeded. Cells were exposed to the test agent at the indicated concentrations, in six replicates, in 10% FBS-supplemented-RPMI-1640 medium at 37° C. in 5% CO2 for 48 hr. The medium was removed and replaced by 150 μL of 0.5 mg/mL of MTT in RPMI-1640 medium, and cells were incubated in the CO2 incubator at 37° C. for 2 h. Supernatants were removed from the wells, and the reduced MTT dye was solubilized with 200 μL/well DMSO. Absorbance was determined on a plate reader at 570 nm.
All compounds were evaluated for their ability to induce apoptotic death in human androgen-independent PC-3 prostate cancer in RPMI 1640 medium containing 10% fetal bovine serum (FBS). For representative compounds tested in DU-145 and LNCaP prostate cancer cells, the IC50 values for inhibiting cell proliferation were similar in these three cell lines irrespective of differences in androgen sensitivity, PTEN mutation, the functional status of p53 and Rb, and other biomarkers.

Compound	IC50 [µM]
COc1cc2nc(N3CCN(C(=O)c4ccc(Cl)cc4)CC3)nc(N)c2cc1OC [Compound 1, [4-(4-Amino-6,7-dimethoxy-quinazolin-2-yl)-piperazin-1-yl]-(4-chloro-phenyl)-methanone]	60 ± 8
COc1cc2nc(N3CCN(C(=O)c4ccc(C#N)cc4)CC3)nc(N)c2cc1OC [Compound 2, 4-[4-(4-Amino-6,7-dimethoxy-quinazolin-2-yl)-piperazine-1-carbonyl]-benzonitrile]	68 ± 6
COc1cc2nc(N3CCN(C(=O)OCc4ccccc4)CC3)nc(N)c2cc1OC [Compound 3, 4-(4-Amino-6,7-dimethoxy-quinazolin-2-yl)-piperazine-1-carboxylic acid benzyl ester]	63 ± 6
COc1cc2nc(N3CCN(C(=O)c4cccc(C#N)c4)CC3)nc(N)c2cc1OC [Compound 4, 3-[4-(4-Amino-6,7-dimethoxy-quinazolin-2-yl)-piperazine-1-carbonyl]-benzo-nitrile]	82 ± 5
COc1cc2nc(N3CCN(C(=O)c4ccc([N+](=O)[O-])cc4)CC3)nc(N)c2cc1OC [Compound 5, [4-(4-Amino-6,7-dimethoxy-quinazolin-2-yl)-piperazin-1-yl]-(4-nitro-phenyl)-methanone]	75 ± 11
COc1ccc(C(=O)N2CCN(c3nc(N)c4cc(OC)c(OC)cc4n3)CC2)cc1OC [Compound 6, [4-(4-Amino-6,7-dimethoxy-quinazolin-2-yl)-piperazin-1-yl]-(3,4-dimethoxy-phenyl)-methanone]	71 ± 8
COc1cc2nc(N3CCN(C(=O)c4cccc5ccccc45)CC3)nc(N)c2cc1OC [Compound 7, [4-(4-Amino-6,7-dimethoxy-quinazolin-2-yl)-piperazin-1-yl]-naphthalen-1-yl-methanone]	59 ± 4
COc1cc2nc(N3CCN(C(=O)c4ccc(N)cc4)CC3)nc(N)c2cc1OC [Compound 8, [4-(4-Amino-6,7-dimethoxy-quinazolin-2-yl)-piperazin-1-yl]-(4-amino-phenyl)-methanone]	> 100
COc1cc2nc(N3CCN(C(=O)c4ccc(C(C)(C)C)cc4)CC3)nc(N)c2cc1OC [Compound 9, [4-(4-Amino-6,7-dimethoxy-quinazolin-2-yl)-piperazin-1-yl]-(4-tert-butyl-phenyl)-methanone]	47 ± 6
COc1cc2nc(N3CCN(C(=O)c4ccc(C(F)(F)F)cc4)CC3)nc(N)c2cc1OC [Compound 10, [4-(4-Amino-6,7-dimethoxy-quinazolin-2-yl)-piperazin-1-yl]-(4-trifluoromethyl-phenyl)-methanone]	> 100
COc1cc2nc(N3CCN(S(=O)(=O)c4ccc(Cl)cc4)CC3)nc(N)c2cc1OC [Compound 11, 2-[4-(4-Chloro-benzonesulfonyl)-piperazin-1-yl]-6,7-dimethoxy-quinazolin-4-yl-amine]	23 ± 3
COc1cc2nc(N3CCN(S(=O)(=O)c4ccc(Br)cc4)CC3)nc(N)c2cc1OC [Compound 12, 2-[4-(4-Bromo-benzenesulfonyl)-piperazin-1-yl]-6,7-dimethoxy-quinazolin-4-yl-amine]	20 ± 2
COc1cc2nc(N3CCN(S(=O)(=O)c4ccc(I)cc4)CC3)nc(N)c2cc1OC [Compound 13, 2-[4-(4-Iodo-benzenesulfonyl)-piperazin-1-yl]-6,7-dimethoxy-quinazolin-4-yl-amine]	15 ± 2
COc1cc2nc(N3CCN(S(=O)(=O)c4ccc(Cl)s4)CC3)nc(N)c2cc1OC [Compound 14, 2-[4-(5-Chloro-thiophene-2-sulfonyl)-piperazin-1-yl]-6,7-dimethoxy-quinazolin-4-ylamine]	25 ± 3
COc1cc2nc(N3CCN(S(=O)(=O)c4ccccc4[N+](=O)[O-])CC3)nc(N)c2cc1OC [Compound 15, 6,7-Dimethoxy-2-[4-(2-nitro-benzenesulfonyl)-piperazin-1-yl]-quinazolin-4-yl-amine]	35 ± 4
COc1cc2nc(N3CCN(S(=O)(=O)c4cccc([N+](=O)[O-])c4)CC3)nc(N)c2cc1OC [Compound 16, 6,7-Dimethoxy-2-[4-(3-nitro-benzenesulfonyl)-piperazin-1-yl]-quinazolin-4-yl-amine]	32 ± 5
COc1cc2nc(N3CCN(S(=O)(=O)c4ccc([N+](=O)[O-])cc4)CC3)nc(N)c2cc1OC [Compound 17, 6,7-Dimethoxy-2-[4-(4-nitro-benzenesulfonyl)-piperazin-1-yl]-quinazolin-4-yl-amine]	36 ± 3
COc1cc2nc(N3CCN(S(=O)(=O)c4ccc(C)cc4)CC3)nc(N)c2cc1OC [Compound 18, 6,7-Dimethoxy-2-[4-(toluene-4-sulfonyl)-piperazin-1-yl]-quinazolin-4-ylamine]	30 ± 2
COc1cc2nc(N3CCN(S(=O)(=O)c4ccc(C(F)(F)F)cc4)CC3)nc(N)c2cc1OC [Compound 19, 6,7-Dimethoxy-2-[4-(4-trifluoromethyl-benzenesulfonyl)-piperazin-1-yl]-quinazolin-4-yl-amine]	27 ± 3
COc1ccc(S(=O)(=O)N2CCN(c3nc(N)c4cc(OC)c(OC)cc4n3)CC2)cc1 [Compound 20, 6,7-Dimethoxy-2-[4-(4-methoxy-benzenesulfonyl)-piperazin-1-yl]-quinazolin-4-yl-amine]	39 ± 4
COc1cc2nc(N3CCN(S(=O)(=O)c4ccc(OC(F)(F)F)cc4)CC3)nc(N)c2cc1OC [Compound 21, 6,7-Dimethoxy-2-[4-(4-trifluoromethoxy-benzenesulfonyl)-piperazin-1-yl]-quinazolin-4-yl-amine]	25 ± 2
COc1cc2nc(N3CCN(S(=O)(=O)c4ccc(S(C)(=O)=O)cc4)CC3)nc(N)c2cc1OC [Compound 22, 2-[4-(4-Methanesulfonyl-benzenesulfonyl)-piperazin-1-yl]-6,7-dimethoxy-quinazolin-4-ylamine]	17 ± 3
COc1cc2nc(N3CCN(S(=O)(=O)c4ccc(C(C)(C)C)cc4)CC3)nc(N)c2cc1OC [Compound 23, 2-[4-(4-tert-Butyl-benzenesulfonyl)-piperazin-1-yl]-6,7-dimethoxy-quinazolin-4-ylamine]	4 to 5
COc1cc2nc(N3CCN(S(=O)(=O)c4cccc(C(=O)O)c4)CC3)nc(N)c2cc1OC [Compound 24, 3-[4-(4-Amino-6,7-dimethoxy-quinazolin-2-yl)-piperazine-1-sulfonyl]-benzoic acid]	53 ± 4
COc1cc2nc(N3CCN(S(=O)(=O)c4cc(Cl)ccc4Cl)CC3)nc(N)c2cc1OC [Compound 26, 2-[4-(2,5-Dichloro-benzenesulfonyl)-piperazin-1-yl]-6,7-dimethoxy-quinazolin-4-ylamine]	60 ± 7
COc1cc2nc(N3CCN(S(=O)(=O)c4ccc(N)cc4N)CC3)nc(N)c2cc1OC [Compound 27, 4-[4-(4-Amino-6,7-dimethoxy-quinazolin-2-yl)-piperazine-1-sulfonyl]-benzene-1,3-diamine]	67 ± 5
COc1cc2nc(N3CCN(S(=O)(=O)c4cc(C(=O)O)c(Cl)cc4F)CC3)nc(N)c2cc1OC [Compound 28, 5-[4-(4-Amino-6,7-dimethoxy-quinazolin-2-yl)-piperazine-1-sulfonyl]-2-chloro-4-fluoro-benzoic acid]	56 ± 4
COc1cc2nc(N3CCN(S(=O)(=O)c4cc(C(=O)O)c(Cl)cc4Cl)CC3)nc(N)c2cc1OC [Compound 29, 5-[4-(4-Amino-6,7-dimethoxy-quinazolin-2-yl)-piperazine-1-sulfonyl]-2,4-dichloro-benzoic acid]	52 ± 6

Same assay, conditions: RPMI 1640 with 10% FBS, 48 h, means ± S.D. (n = 6)

Compound	IC50 [µM]
COc1cc2nc(N3CCN(S(=O)(=O)c4ccc(C(C)(C)C)cc4)CC3)nc(N)c2cc1OC [Compound 23, 2-[4-(4-tert-Butyl-benzenesulfonyl)-piperazin-1-yl]-6,7-dimethoxy-quinazolin-4-ylamine]	4.1 ± 0.7
